According to PubChem BioAssay AID1963860 (Molecular Pharmacology Branch, DTP, NCI, 2024):

System: CN0375-F725-PDC KRAS spheroid viability
Assay: Anticancer human tumor CN0375-F725-PDC patient-derived colon carcinoma cell line growth inhibition [KRAS2]
Settings: spheroids with HUVEC and MSC; for IC50: curve of first compound; for viability, T/C: stronger effect = lower value
Outline: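 KRAS-mutant tumor cells were grown as spheroids with HUVEC endothelial cells and human MSCs as stroma. Targeted agents were tested alone and with KRAS pathway inhibitors. Doses started at or near clinical Cmax, or 10 microM, descending half-log.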

[1] = second compound 0.1 µM, first compound 0.0316 µM
[2] = second compound 0.1 µM, first compound 0.1 µM
[3] = second compound 0.316 µM, first compound 0.0316 µM
[4] = second compound 0.316 µM, first compound 0.1 µM
[5] = second compound 1 µM, first compound 0.0316 µM
[6] = second compound 1 µM, first compound 0.1 µM
[7] = second compound 3.16 µM, first compound 0.0316 µM
[8] = second compound 3.16 µM, first compound 0.1 µM
[9] = second compound 10 µM, first compound 0.0316 µM
[10] = second compound 10 µM, first compound 0.1 µM
[11] = second compound 0.1 µM, first compound 0.316 µM
[12] = second compound 0.1 µM, first compound 1 µM
[13] = second compound 0.1 µM, first compound 3.16 µM
[14] = second compound 0.1 µM, first compound 10 µM
[15] = second compound 0.316 µM, first compound 0.316 µM
[16] = second compound 0.316 µM, first compound 1 µM
[17] = second compound 0.316 µM, first compound 3.16 µM
[18] = second compound 0.316 µM, first compound 10 µM
[19] = second compound 1 µM, first compound 0.316 µM
[20] = second compound 1 µM, first compound 1 µM
[21] = second compound 1 µM, first compound 3.16 µM
[22] = second compound 1 µM, first compound 10 µM
[23] = second compound 3.16 µM, first compound 0.316 µM
[24] = second compound 3.16 µM, first compound 1 µM
[25] = second compound 3.16 µM, first compound 3.16 µM
[26] = second compound 3.16 µM, first compound 10 µM
[27] = second compound 10 µM, first compound 0.316 µM
[28] = second compound 10 µM, first compound 1 µM
[29] = second compound 10 µM, first compound 3.16 µM
[30] = second compound 10 µM, first compound 10 µM
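Note: spheroids exposed to agents for 7 days.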

CN(C)C/C=C/C(=O)Nc1cc2c(Nc3ccc(F)c(Cl)c3)ncnc2cc1O[C@H]1CCOC1 + CC1OCC2(CCN(c3cnc(Sc4ccnc(N)c4Cl)c(N)n3)CC2)C1N
IC50 (second compound 0.1 µM): > 100 nM
IC50 (second compound 0.316 µM): > 100 nM
IC50 (second compound 1 µM): > 100 nM
IC50 (second compound 3.16 µM): > 100 nM
IC50 (second compound 10 µM): > 100 nM
viability, T/C (second compound 0.1 µM, first compound 0.000316 µM): 95.9%
viability, T/C (second compound 0.1 µM, first compound 0.001 µM): 87%
viability, T/C (second compound 0.1 µM, first compound 0.00316 µM): 87.5%
viability, T/C (second compound 0.1 µM, first compound 0.01 µM): 85.9%
viability, T/C [1]: 80.4%
viability, T/C [2]: 80.4%
viability, T/C (second compound 0.316 µM, first compound 0.000316 µM): 93.6%
viability, T/C (second compound 0.316 µM, first compound 0.001 µM): 87.7%
viability, T/C (second compound 0.316 µM, first compound 0.00316 µM): 84%
viability, T/C (second compound 0.316 µM, first compound 0.01 µM): 86.9%
viability, T/C [3]: 83.2%
viability, T/C [4]: 75.7%
viability, T/C (second compound 1 µM, first compound 0.000316 µM): 94.8%
viability, T/C (second compound 1 µM, first compound 0.001 µM): 97.5%
viability, T/C (second compound 1 µM, first compound 0.00316 µM): 88.3%
viability, T/C (second compound 1 µM, first compound 0.01 µM): 85.5%
viability, T/C [5]: 83.5%
viability, T/C [6]: 77.7%
viability, T/C (second compound 3.16 µM, first compound 0.000316 µM): 73.9%
viability, T/C (second compound 3.16 µM, first compound 0.001 µM): 77.7%
viability, T/C (second compound 3.16 µM, first compound 0.00316 µM): 73.7%
viability, T/C (second compound 3.16 µM, first compound 0.01 µM): 71%
viability, T/C [7]: 71.6%
viability, T/C [8]: 72.3%
viability, T/C (second compound 10 µM, first compound 0.000316 µM): 90.3%
viability, T/C (second compound 10 µM, first compound 0.001 µM): 96%
viability, T/C (second compound 10 µM, first compound 0.00316 µM): 88%
viability, T/C (second compound 10 µM, first compound 0.01 µM): 84.6%
viability, T/C [9]: 80.6%
viability, T/C [10]: 82.8%

COC(=O)c1ccc2c(C(=Nc3ccc(N(C)C(=O)CN4CCN(C)CC4)cc3)c3ccccc3)c(O)[nH]c2c1 + CC1OCC2(CCN(c3cnc(Sc4ccnc(N)c4Cl)c(N)n3)CC2)C1N
IC50 (second compound 0.1 µM): 2340 nM
IC50 (second compound 0.316 µM): 2180 nM
IC50 (second compound 1 µM): 2250 nM
IC50 (second compound 3.16 µM): 2010 nM
IC50 (second compound 10 µM): 1270 nM
viability, T/C [1]: 104%
viability, T/C [2]: 103%
viability, T/C [11]: 89.3%
viability, T/C [12]: 85.9%
viability, T/C [13]: 37.4%
viability, T/C [14]: 0.19%
viability, T/C [3]: 102%
viability, T/C [4]: 91%
viability, T/C [15]: 84.8%
viability, T/C [16]: 81.3%
viability, T/C [17]: 35.4%
viability, T/C [18]: 0.2%
viability, T/C [5]: 79.2%
viability, T/C [6]: 84.6%
viability, T/C [19]: 93.5%
viability, T/C [20]: 75.3%
viability, T/C [21]: 38.8%
viability, T/C [22]: 0.16%
viability, T/C [7]: 76%
viability, T/C [8]: 82.4%
viability, T/C [23]: 83.2%
viability, T/C [24]: 69.2%
viability, T/C [25]: 36.9%
viability, T/C [26]: 0.37%
viability, T/C [9]: 66%
viability, T/C [10]: 73.2%
viability, T/C [27]: 68.5%
viability, T/C [28]: 60.3%
viability, T/C [29]: 11.7%
viability, T/C [30]: 1.38%

O=C(c1cc(Cc2n[nH]c(=O)c3ccccc23)ccc1F)N1CCN(C(=O)C2CC2)CC1 + CC1OCC2(CCN(c3cnc(Sc4ccnc(N)c4Cl)c(N)n3)CC2)C1N
IC50 (second compound 0.1 µM): > 10000 nM
IC50 (second compound 0.316 µM): > 10000 nM
IC50 (second compound 1 µM): > 10000 nM
IC50 (second compound 3.16 µM): > 10000 nM
IC50 (second compound 10 µM): > 10000 nM
viability, T/C [1]: 97.7%
viability, T/C [2]: 98.4%
viability, T/C [11]: 91.3%
viability, T/C [12]: 100%
viability, T/C [13]: 97.8%
viability, T/C [14]: 90%
viability, T/C [3]: 100%
viability, T/C [4]: 93.9%
viability, T/C [15]: 90.3%
viability, T/C [16]: 89.6%
viability, T/C [17]: 93%
viability, T/C [18]: 86.4%
viability, T/C [5]: 107%
viability, T/C [6]: 98.3%
viability, T/C [19]: 93.6%
viability, T/C [20]: 92.6%
viability, T/C [21]: 97.6%
viability, T/C [22]: 93.9%
viability, T/C [7]: 83.4%
viability, T/C [8]: 82.2%
viability, T/C [23]: 82.5%
viability, T/C [24]: 80.7%
viability, T/C [25]: 80.7%
viability, T/C [26]: 76.4%
viability, T/C [9]: 79.9%
viability, T/C [10]: 83.6%
viability, T/C [27]: 106%
viability, T/C [28]: 77%
viability, T/C [29]: 71.4%
viability, T/C [30]: 71.1%
